Patent US11833144B2, “Treating autoimmune disease” (Mayo Foundation for Medical Education and Research, priority 2020, dated 2023)

Experiments:
[1] = tested on: human B cells; experiment: Human naive B cell proliferation (thymidine incorporation) and CD27 expression; format: cell-based
Procedure: PBMCs were isolated from the medical waste following apheresis collection of platelets. Briefly, blood was diluted 1:3 using PBS. The diluted blood was then overlaid with Ficoll-Paque PLUS density gradient medium (GE Healthcare). The gradient was centrifuged at 400 g with no brake for 25 minutes at room temperature. The PBMC interphase layer was collected, washed with PBS with 0.1% BSA/2 mM of EDTA. Naive B cells (CD19^+CD27^−IgD^+) were enriched using Human naive B cell negative selection kit (Stemcell Technologies). Mouse B cells were isolated from pooled single cell suspensions of spleen and peripheral lymph nodes using CD19 Microbeads (Miltenyi) or Mouse B cell Isolation Kit (Stemcell Technologies). B cells were stimulated with LPS (10 μg/mL; Sigma-Aldrich) and recombinant IL-4 cytokine (10 ng/mL; Tonbo Bioscience) with or without SCD inhibitor SSI-4, and proliferation was measured by dilution of CellTrace Violet proliferation dye (Thermo Fisher Scientific). B cells were also stimulated with anti-IgM (10 μg/mL; Jackson ImmunoResearch), anti-CD40 (10 μg/mL; BioXcell) and IL-4 (10 ng/mL; Tonbo Bioscience), or TLR ligand CpG (2.5 μM; IDT), recombinant IL-4 and IL-5 (10 ng/mL; Tonbo Bioscience) cytokines. To test the function of monounsaturated and saturated fatty acids, B cells were activated in presence of exogenous fatty acid-BSA conjugate. Palmitoleic acid (NU-CHEK PREP, INC), palmitic acid (NU-CHEK PREP, INC), stearic acid (NU-CHEK PREP, INC) were conjugated with fatty acid free BSA (Sigma-Aldrich) as described elsewhere (Wang et al., Immunity 35:871-882 (2011)). Human B cells were activated with CpG OND2006 (2.5 μM; IDT), recombinant human cytokine IL-10 ([…]; Peprotech), IL-15 (10 ng/mL; Peprotech), IL-4 (10 ng/mL; Biolegend), IL-2 (10 unit/mL) and anti-human CD40 (1 μg/mL; BioXcell). Human B cell proliferation was measured by ^3[H]-thymidine incorporation (1 μCi/mL) (American Radiolabeled Chemicals).

[2] = tested on: activated mouse B cells; experiment: Transmission electron microscopy of autophagosomes in activated mouse B cells; format: cell-based; details: SSI-4 treated B cells
Procedure: Cells were fixed in Trumps fixative (pH 7.2) at 4° C. overnight, spun down and the supernatant removed. They were re-suspended in 2% agarose which was allowed to cool and solidify. The cells in agarose were then post-fixed in 1% OsO4, dehydrated through a graded series of ethanols and embedded in Spurr resin. One hundred nm […] ultra-thin sections were mounted on 200-mesh copper grids, post-stained with lead citrate, and observed under a JEOL JEM-1400 transmission electron microscope at 80 kV.

[3] = tested on: SCD; experiment: 13C-glucose tracing of de novo fatty acid biosynthesis in activated B cells (NEFA isotopomer analysis); format: cell-based, mouse; details: 48 hours
Procedure: Briefly, 5×10^6 activated B cells were washed with PBS and re-cultured in glucose-free medium RPMI medium containing 10% dialyzed FBS and uniformly labeled [^13C]-glucose (2 g/L; Sigma-Aldrich) for 24 and 48 hours. Cell pellets were lysed in 1×PBS prior to lipid extraction. The extract was dried down and brought up in running buffer before underwent analysis on an Agilent 6550 iFunnel Q-TOF mass spectrometer/1290 Infinity liquid chromatographic system. A mixed standard containing 14 fatty acids was also run at the beginning and at the end of the sequence to generate retention time lock as well as unlabeled mass spectrum for each fatty acid. The mass spec was operating in negative electrospray ionization. Data was acquired in scan mode from 50-1700 m/z range. Data analysis was performed on Agilent Technologies software including Profinder, Mass Profiler Professional (MPP) and Vista Flux. Briefly, the features extracted from the data files were aligned using Profinder and converted to a compound exchange file (CEF) format to import in the MPP. The list was filtered for frequency and abundance to identify features that are present in all samples and with high abundance. A library was created using mass, molecular formula, and retention time of these features and used in conjunction with the Vista Flux software to determine the presence of isotopologue in individual feature. […]

[4] = tested on: mice immunized with NP-OVA; experiment: NP-OVA immunization of mice fed SSI-4 chow: humoral immune response; format: in vivo, mouse

CCCCCCCC/C=C\CCCCCCCC(=O)O [OA, oleic acid]
restoration of human B cell proliferation and CD27 expression upon SSI-4 treatment ([1]; SSI-4 (10 nM) plus exogenous OA): restored B cell proliferation and CD27 expression
human B cell activation measured by CD27 expression, exogenous OA alone ([1]; flow cytometry MFI): promoted
human B cell proliferation, exogenous OA alone ([1]; thymidine incorporation): promoted human B cell proliferation

CNC(=O)c1ccnc(NC(=O)N2CCC(Oc3ccccc3Cl)CC2)c1 [SSI-4, 2-{[4-(2-Chlorophenoxy)piperidine-1-carbonyl]amino}-N-methylpyridine-4-carboxamide]
autophagosome structures by transmission electron microscopy [2]: increased structures with double layer membrane
13C incorporation from glucose in OA, PO and vaccenic acid [3]: all abolished
13C incorporation from glucose into SA, PA and myristic acid [3]: largely unaffected
B220intCD138+ plasmablast generation ([4]; NP-OVA immunized, SSI-4 chow): not affected
antigen specific NP+ GC B cells ([4]; NP-OVA immunized, SSI-4 chow): reduced
splenic GC formation ([4]; NP-OVA immunized, SSI-4 chow): significantly suppressed
OA level in sera of immunized mice ([4]; NP-OVA immunized, SSI-4 chow, GC-MS): substantially reduced
mTORC1 activity (p-S6 MFI) in splenic B cells in vivo ([4]; SSI-4 chow (30 mg/kg), NP-OVA immunization for one week): suppressed mTORC1 activity
percentage of Tfh cells after immunization ([4]; SSI-4 chow vs control chow): comparable
production of anti-NP specific IgM antibodies ([4]; serum ELISA): but not IgM
production of anti-NP specific total IgG and IgG1 antibodies ([4]; serum ELISA): significantly reduced
